Assay results taken from patent US8519003B2, “Phenoxyphenylamidines as fungicides” (priority 2007, dated 2013).

What was measured:
[1] = logP determination (acidic / HCOOH and neutral); details: for chromatographic logP: acidic, HCOOH (formic acid)
[2] = tested on: Erysiphe graminis f. sp. hordei; test: Erysiphe test (barley)/protective; format: in vivo; details: protective, active compound concentration 500 ppm, evaluation 7 days after inoculation
Method: Erysiphe Test (Barley)/Protective [table] To produce a suitable preparation of active compound, 1 part by weight of N-ethyl-N-methyl-N′-[4-phenoxy-2,5-xylyl]formamidine (according to formula (1)) is mixed with the stated amounts of solvent and emulsifier, and the concentrate is diluted with water to the desired concentration. To test for protective activity, young cereal plants are sprayed with the active compound preparation at the stated application rate. 1 day after the treatment, the plants are inoculated with spores of Erysiphe graminis f. sp. hordei. The plants are then placed in a greenhouse at 70% relative atmospheric humidity and a temperature of 18° C. Evaluation is carried out 7 days after the inoculation. 0% means an efficacy which corresponds to that of the control, whereas an efficacy of 100% means that no infection is observed.

Uromyces appendiculatus = test: Uromyces test (bean)/protective; format: in vivo; details: protective, active compound concentration 10 ppm, evaluation 10 days after inoculation
Method: (§1) Uromyces Test (Bean)/Protective [table] To produce a suitable preparation of active compound, 1 part by weight of N-ethyl-N-methyl-N′-[4-phenoxy-2,5-xylyl]formamidine (according to formula (1)) is mixed with the stated amounts of solvent and emulsifier, and the concentrate is diluted with water to the desired concentration. To test for protective activity, young plants are sprayed with the active compound preparation at the stated application rate. After the spray coating has dried on, the plants are inoculated with an aqueous spore suspension of the bean rust pathogen Uromyces appendiculatus and then remain in an incubation cabin at about 20° C. and 100% relative atmospheric humidity for 1 day. The plants are then placed in a greenhouse at about 21° C. and a relative atmospheric humidity of about 90%. Evaluation is carried out 10 days after the inoculation. 0% means an efficacy which corresponds to that of the control, whereas an efficacy of 100% means that no infection is observed.

Podosphaera leucotricha = test: Podosphaera test (apple)/protective; format: in vivo; details: protective, active compound concentration 100 ppm, evaluation 10 days after inoculation
Method: as §1, with “Podosphaera” for “Uromyces”, “(Apple)/Protective” for “(Bean)/Protective”, “apple mildew” for “bean rust”, “Podosphaera leucotricha.” for “Uromyces appendiculatus and then remain in an incubation cabin at about 20° C. and 100% relative atmospheric humidity for 1 day.”, “23°” for “21°”, “70%.” for “90%.”

Sphaerotheca fuliginea = test: Sphaerotheca test (cucumber)/protective; format: in vivo; details: protective, active compound concentration 100 ppm, evaluation 7 days after inoculation
Method: Sphaerotheca Test (Cucumber)/Protective [table] To produce a suitable preparation of active compound, 1 part by weight of N-ethyl-N-methyl-N′-[4-phenoxy-2,5-xylyl]formamidine (according to formula (1)) is mixed with the stated amounts of solvent and emulsifier, and the concentrate is diluted with water to the desired concentration. To test for protective activity, young plants are sprayed with the active compound preparation at the stated application rate. After the spray coating has dried on, the plants are inoculated with an aqueous spore suspension of Sphaerotheca fuliginea. The plants are then placed in a greenhouse at about 23° C. and a relative atmospheric humidity of about 90%. Evaluation is carried out 7 days after the inoculation. 0% means an efficacy which corresponds to that of the control, whereas an efficacy of 100% means that no infection is observed.

| chromatographic logP [1] | logP [1] | SMILES | efficacy [2] [%] | efficacy (Uromyces appendiculatus) [%] | efficacy (Podosphaera leucotricha) [%] | efficacy (Sphaerotheca fuliginea) [%] |
| --- | --- | --- | --- | --- | --- | --- |
| 1.92 | – | Cc1cc(Oc2ccccc2)c(C)cc1N [4-phenoxy-2,5-xylidine] | – | – | – | – |
| 1.87 | 4.67 | CCN(C)C=Nc1cc(C)c(Oc2ccccc2)cc1C [(1), N-ethyl-N-methyl-N′-[4-phenoxy-2,5-xylyl]formamidine] | ≥ 70 | ≥ 70 | ≥ 70 | ≥ 70 |
